Earlier results, collected in US5496703A, “Indirect immunoassay for dioxinlike compounds” (priority 1993, dated 1996).
Like-named read-outs stand apart in the source and are kept apart here.

How the values were obtained:
Ah receptor = settings: cited from earlier work
AHH [1] = settings: responsive C57BL/6J inbred mouse strain; cited from earlier work
AHH [2] = settings: nonresponsive DBA/2 inbred mouse strain; cited from earlier work

Row | SMILES | binding affinity to Ah receptor (Ah receptor) | AHH induction (AHH [1]) | AHH induction (AHH [2])
1 | Cc1ccc2cc3c(ccc4ccccc43)c3c2c1CC3 [3-methylcholanthrene] | high affinity | capable of inducing AHH activity | not in the nonresponsive DBA/2 inbred mouse strain
2 | c1ccc2c(c1)cc1ccc3cccc4ccc2c1c34 [benzo[a]pyrene] | high affinity | – | –
